Experimental data as given in patent publication US12454529B2, “Piperazine cyclic ureas” (SIRONAX LTD., priority 2020, dated 2025).

Test system: HT-29 cells
Test: HT-29 cell necrosis/necroptosis inhibition (TNF-α + SMAC mimetic + zVAD-FMK; CellTiter-Glo cell viability)
Type: cell-based
Details: Homo sapiens; HT-29 cells, TNF-α 10 ng/ml + SMAC mimetic 6 μM + zVAD-FMK 10 μM, 20 hours; geometric mean, 10 points in duplicate; read-out: EC50 (Cell activity; Necrosis/Necroptosis Inhibitory Activity, Compounds 1-142)
Experimental: Compounds 1-319 (denoted as Compound Nos. 1 through 319 in Table 3 and 4) of the disclosure were tested for binding and cellular RIP1 inhibitory activity following the experimental procedures described below.
• Cell line: HT-29 (ATCC® HTB-38™) • Culture medium: McCOY's 5A, Gibco, Cat No. 16600-082 • FBS, Gibco, Cat No. 10099-141C • Trypsin: Gibco, Cat No. 25200-056 • DMSO: Sigma, Cat No. 67-68-5, 1L • Assay plate: Corning #3903 • Compound dilution plate: Corning #3357 • Inducers: TNFα, GenScript, Cat No. Z01001-50, • SmacM, Cat. No., HY-15989, MedChemExpress (MCE) • Z_VAD FMK, TargetMol, T6013 • Cell Titer-Glo® Luminescent Cell Viability Assay Kit: Promega, Cat No. G7573 • EnVision: PerkinElmer, 2105-0010 Methods Cell Seeding
1. HT-29 cells were checked every day to make sure that they were healthy and growing as expected. They were subjected to sub-culturing when they were approximately 80% confluent.
2. The culture medium, McCOY's 5A medium (Gibco, Cat No. 16600-082) with 10% fetal bovine serum or FBS (Gibco, Cat No. 10099-141C), was pre-warmed in a 37° C. water bath for at least 30 min.
3. When the cells had reached a desired level of confluency of 80% in a T75 flask, the medium was aspirated, and the cells were washed with warm phosphate buffered saline or PBS two times.
4. 2-3 ml fresh warm trypsin (Gibco, Cat No. 25200-056) solution was added to the washed cells. The flask with the cells was transferred to a 37° C. incubator.
5. After 5 minutes, the side of the flask was tapped, and the flask was examined under a microscope for detachment of the cells to the flask. If necessary, the cells were kept in the incubator for an additional 5-10 minutes, with occasional tapping, until lifting was complete.
6. The trypsin reaction was neutralized by transferring 6-9 ml cell culture medium to sterile 15 ml conical tubes, and by centrifuging the cell culture at 300×g for 7 minutes to pellet the cells (supernatant decanted).
7. The cells were resuspended in fresh cell culture medium and the cell counting was performed using a hemocytometer.
8. 100 μl of the resuspended cell culture medium containing ˜5,000 cells were transferred into each well of the sterile 96-well cell culture plate (Corning 3903) and cultured overnight at 37° C. with 5% CO2.
Compound Titration and Treatment
1. All test compounds were dissolved in DMSO (Dimethyl sulfoxide) to create a 20 mM stock.
2. 3 μl of each compound 20 mM stock was mixed with 27 μl DMSO, and the compound solution was further diluted at a titration ratio of 1:3 (20 μl compound solution+40 μl DMSO) till the 10 points end.
3. All culture medium was removed from assay plates filled with HT-29 cell cultures. The cells were then washed with 1 PBS, and resuspended in fresh, FBS-free McCOY's 5A medium containing a cocktail of TNF-α (10 ng/ml), a SMAC mimetic compound (6 μM) and Z-VAD-fluoromethylketone or zVAD-FMK (10 μM) to stimulate the HT-29 cells to increase RIP1 kinase levels and necroptosis.
4. 0.5 μL of the diluted compound solution was added to the corresponding 96-well assay plates.
5. The assay plates were incubated for 20 hours at 37° C. with 5% CO2.
1. The CellTiter-Glo® Luminescent Cell Viability Assay was employed to detect the ATP levels of viable HT-29 cells.
2. The CellTiter-Glo® buffer and the lyophilized substrate were equilibrated to room temperature prior to use.
3. The CellTiter-Glo® substrate was resuspended with CellTiter-Glo® buffer, then mixed by gently vortexing to obtain a homogeneous solution.
4. 20 μl the enzyme/substrate mixture was transferred by multi-channel pipetting into 96-well assay plates.
5. The assay plates were placed on an orbital shaker and the contents were shaken for 3 minutes to induce cell lysis.
6. The assay plates were incubated at room temperature for 10 minutes to stabilize the luminescent signal.
7. The luminescence signals were read and recorded with EnVision.
8. The geometric mean EC50 values were calculated from 10 points response dose with duplicates. In

SMILES	EC50
Cc1cc(-c2nc(N3CCN(C(=O)N4N=CC[C@H]4c4ccccc4)CC3)ncc2F)n(C)n1 [Compound 85, (S)-(4-(4-(1,3-dimethyl-1H-pyrazol-5-yl)-5-fluoropyrimidin-2-yl)piperazin-1-yl)(5-phenyl-4,5-dihydro-1H-pyrazol-1-yl)methanone]	0.0001 to 0.1 µM
Cc1cnn(C)c1-c1nc(N2CCN(C(=O)N3N=CC[C@H]3c3cc(F)cc(C#N)c3)CC2)ncc1F [Compound 62, (S)-3-(1-(4-(4-(1,4-dimethyl-1H-pyrazol-5-yl)-5-fluoropyrimidin-2-yl)piperazine-1-carbonyl)-4,5-dihydro-1H-pyrazol-5-yl)-5-fluorobenzonitrile]	0.0001 to 0.1 µM
Cc1n[nH]c(C)c1-c1nc(N2CCN(C(=O)N3N=CC[C@H]3c3cc(F)cc(C#N)c3)CC2)ncc1F [Compound 94, (S)-3-(1-(4-(4-(3,5-dimethyl-1H-pyrazol-4-yl)-5-fluoropyrimidin-2-yl)piperazine-1-carbonyl)-4,5-dihydro-1H-pyrazol-5-yl)-5-fluorobenzonitrile]	0.0001 to 0.1 µM
Cc1cc(-c2cc(N3CCN(C(=O)N4N=CC[C@H]4c4cc(F)cc(F)c4)CC3)ncc2F)n(C)n1 [Compound 116, (S)-(5-(3,5-difluorophenyl)-4,5-dihydro-1H-pyrazol-1-yl)(4-(4-(1,3-dimethyl-1H-pyrazol-5-yl)-5-fluoropyridin-2-yl)piperazin-1-yl)methanone]	0.0001 to 0.1 µM
COc1nc(OC)c(-c2nc(N3CCN(C(=O)N4N=CC[C@H]4c4cc(F)cc(F)c4)CC3)ncc2F)c(OC)n1 [Compound 49, (S)-(5-(3,5-difluorophenyl)-4,5-dihydro-1H-pyrazol-1-yl)(4-(5-fluoro-2′,4′,6′-trimethoxy-[4,5′-bipyrimidin]-2-yl)piperazin-1-yl)methanone]	0.0001 to 0.1 µM

Same assay, conditions: Homo sapiens; HT-29 cells, TNF-α 10 ng/ml + SMAC mimetic 6 μM + zVAD-FMK 10 μM, 20 hours; geometric mean, 10 points in duplicate; read-out: EC50 (Cell activity; Necrosis/Necroptosis Inhibitory Activity, Compounds 143-323)

SMILES	EC50
CCn1nc(C)n(-c2nc(N3CCN(C(=O)N4N=CC[C@H]4c4cc(F)cc(F)c4)CC3)ncc2F)c1=O [Compound 182, (S)-4-(2-(4-(5-(3,5-difluorophenyl)-4,5-dihydro-1H-pyrazole-1-carbonyl)piperazin-1-yl)-5-fluoropyrimidin-4-yl)-2-ethyl-5-methyl-2,4-dihydro-3H-1,2,4-triazol-3-one]	0.0001 to 0.1 µM
CCn1c(C)nn(-c2nc(N3CCN(C(=O)N4N=CC[C@H]4c4cc(F)cc(C#N)c4)CC3)ncc2F)c1=O [Compound 181, (S)-3-(1-(4-(4-(4-ethyl-3-methyl-5-oxo-4,5-dihydro-1H-1,2,4-triazol-1-yl)-5-fluoropyrimidin-2-yl)piperazine-1-carbonyl)-4,5-dihydro-1H-pyrazol-5-yl) fluorobenzonitrile]	0.0001 to 0.1 µM
Cc1nc(CO)nn1-c1nc(N2CCN(C(=O)N3N=CC[C@H]3c3cc(F)cc(F)c3)CC2)ncc1F [Compound 251, (S)-(5-(3,5-difluorophenyl)-4,5-dihydro-1H-pyrazol-1-yl)(4-(5-fluoro-4-(3-(hydroxymethyl)-5-methyl-1H-1,2,4-triazol-1-yl)pyrimidin-2-yl)piperazinyl)methanone]	0.0001 to 0.1 µM
Cn1nc(CF)nc1-c1ccnc(N2CCN(C(=O)N3N=CC[C@H]3c3cc(F)cc(C#N)c3)CC2)n1 [Compound 169, (S)-3-fluoro-5-(1-(4-(4-(3-(fluoromethyl)-1-methyl-1H-1,2,4-triazol-5-yl)pyrimidin-2-yl)piperazine-1-carbonyl)-4,5-dihydro-1H-pyrazol-5-yl)benzonitrile]	0.0001 to 0.1 µM
Cc1nc(C)n(-c2nc(N3CCN(C(=O)N4N=CC[C@H]4c4cncc(F)c4)CC3)c(F)cc2F)n1 [Compound 234, (S)-(4-(6-(3,5-dimethyl-1H-1,2,4-triazol-1-yl)-3,5-difluoropyridin-2-yl)piperazin-1-yl)(5-(5-fluoropyridin-3-yl)-4,5-dihydro-1H-pyrazol-1-yl)methanone]	0.0001 to 0.1 µM
N#Cc1cc(F)cc([C@@H]2CC=NN2C(=O)N2CCN(c3ncc(F)c(-n4cnc(C(F)(F)F)n4)n3)CC2)c1 [Compound 306, (S)-3-fluoro-5-(1-(4-(5-fluoro-4-(3-(trifluoromethyl)-1H-1,2,4-triazol-1-yl)pyrimidin-2-yl)piperazine-1-carbonyl)-4,5-dihydro-1H-pyrazol-5-yl)benzonitrile]	0.0001 to 0.1 µM
